Read-outs that look alike come from different tables or passages of the source.
Legend:
[1] = biological target: BRG-1 (Homo sapiens, UniProt P51532); experiment: ATPase catalytic activity assay of BRG-1 (ADP-Glo); format: biochemical; conditions: ATPase catalytic activity, ADP-Glo; for Emax: read-out: BRG1 Max % Inhibition
Summary of the method: (§1)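 Luminescence from ADP formed by BRM or BRG-1 ATPase was detected after a two-step ADP-Glo workup at room temperature. The first step, removing unconsumed ATP, took 40 min; the second, converting ADP to ATP for luciferase, took 60 min.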

[2] = biological target: BRM (Homo sapiens, UniProt P51531); experiment: ATPase catalytic activity assay of BRM (ADP-Glo); format: biochemical
Summary of the method: as §1

Chain of BRG-1 (P51532 whole entry): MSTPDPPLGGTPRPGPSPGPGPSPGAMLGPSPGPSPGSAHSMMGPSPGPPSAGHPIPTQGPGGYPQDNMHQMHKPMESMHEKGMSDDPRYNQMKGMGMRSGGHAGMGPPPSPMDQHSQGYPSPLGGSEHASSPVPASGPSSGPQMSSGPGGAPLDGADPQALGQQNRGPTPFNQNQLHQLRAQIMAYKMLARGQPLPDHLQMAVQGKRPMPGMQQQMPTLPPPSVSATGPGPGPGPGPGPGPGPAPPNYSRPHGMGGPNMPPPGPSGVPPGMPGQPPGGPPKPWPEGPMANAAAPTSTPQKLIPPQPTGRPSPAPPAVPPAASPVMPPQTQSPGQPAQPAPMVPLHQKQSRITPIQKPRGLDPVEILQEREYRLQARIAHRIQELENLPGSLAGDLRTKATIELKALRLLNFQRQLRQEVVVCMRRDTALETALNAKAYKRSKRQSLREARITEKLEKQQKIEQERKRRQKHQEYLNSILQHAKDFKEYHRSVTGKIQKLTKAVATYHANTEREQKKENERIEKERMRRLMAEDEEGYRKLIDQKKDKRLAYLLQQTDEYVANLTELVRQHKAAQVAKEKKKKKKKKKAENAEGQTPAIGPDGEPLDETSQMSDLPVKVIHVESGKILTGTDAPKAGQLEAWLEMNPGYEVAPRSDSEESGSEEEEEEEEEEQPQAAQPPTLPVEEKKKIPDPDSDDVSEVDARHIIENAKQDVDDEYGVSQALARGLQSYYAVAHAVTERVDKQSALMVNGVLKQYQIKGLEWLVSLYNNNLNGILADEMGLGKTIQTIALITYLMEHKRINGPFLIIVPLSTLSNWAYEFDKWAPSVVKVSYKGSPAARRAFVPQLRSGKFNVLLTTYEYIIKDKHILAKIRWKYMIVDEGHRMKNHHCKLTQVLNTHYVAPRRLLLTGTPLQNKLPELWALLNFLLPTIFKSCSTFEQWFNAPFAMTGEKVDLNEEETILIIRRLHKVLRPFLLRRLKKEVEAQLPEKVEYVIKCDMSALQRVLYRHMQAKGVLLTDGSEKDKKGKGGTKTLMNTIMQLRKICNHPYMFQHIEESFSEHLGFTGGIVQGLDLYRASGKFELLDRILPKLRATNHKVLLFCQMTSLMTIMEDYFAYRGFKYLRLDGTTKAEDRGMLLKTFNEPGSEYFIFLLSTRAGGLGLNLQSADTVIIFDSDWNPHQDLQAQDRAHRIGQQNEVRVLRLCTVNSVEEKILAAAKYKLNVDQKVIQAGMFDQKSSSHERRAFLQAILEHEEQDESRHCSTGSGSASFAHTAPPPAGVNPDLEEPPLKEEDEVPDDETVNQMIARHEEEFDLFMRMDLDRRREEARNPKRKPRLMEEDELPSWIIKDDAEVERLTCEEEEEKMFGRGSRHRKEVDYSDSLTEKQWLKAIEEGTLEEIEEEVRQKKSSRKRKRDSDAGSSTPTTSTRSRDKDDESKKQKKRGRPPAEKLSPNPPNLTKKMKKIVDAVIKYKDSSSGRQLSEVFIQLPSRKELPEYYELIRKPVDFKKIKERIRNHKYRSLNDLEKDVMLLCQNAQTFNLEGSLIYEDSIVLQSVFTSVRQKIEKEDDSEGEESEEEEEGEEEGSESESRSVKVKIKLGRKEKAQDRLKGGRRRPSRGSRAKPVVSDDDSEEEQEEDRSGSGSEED
Chain of BRM (P51531 whole entry): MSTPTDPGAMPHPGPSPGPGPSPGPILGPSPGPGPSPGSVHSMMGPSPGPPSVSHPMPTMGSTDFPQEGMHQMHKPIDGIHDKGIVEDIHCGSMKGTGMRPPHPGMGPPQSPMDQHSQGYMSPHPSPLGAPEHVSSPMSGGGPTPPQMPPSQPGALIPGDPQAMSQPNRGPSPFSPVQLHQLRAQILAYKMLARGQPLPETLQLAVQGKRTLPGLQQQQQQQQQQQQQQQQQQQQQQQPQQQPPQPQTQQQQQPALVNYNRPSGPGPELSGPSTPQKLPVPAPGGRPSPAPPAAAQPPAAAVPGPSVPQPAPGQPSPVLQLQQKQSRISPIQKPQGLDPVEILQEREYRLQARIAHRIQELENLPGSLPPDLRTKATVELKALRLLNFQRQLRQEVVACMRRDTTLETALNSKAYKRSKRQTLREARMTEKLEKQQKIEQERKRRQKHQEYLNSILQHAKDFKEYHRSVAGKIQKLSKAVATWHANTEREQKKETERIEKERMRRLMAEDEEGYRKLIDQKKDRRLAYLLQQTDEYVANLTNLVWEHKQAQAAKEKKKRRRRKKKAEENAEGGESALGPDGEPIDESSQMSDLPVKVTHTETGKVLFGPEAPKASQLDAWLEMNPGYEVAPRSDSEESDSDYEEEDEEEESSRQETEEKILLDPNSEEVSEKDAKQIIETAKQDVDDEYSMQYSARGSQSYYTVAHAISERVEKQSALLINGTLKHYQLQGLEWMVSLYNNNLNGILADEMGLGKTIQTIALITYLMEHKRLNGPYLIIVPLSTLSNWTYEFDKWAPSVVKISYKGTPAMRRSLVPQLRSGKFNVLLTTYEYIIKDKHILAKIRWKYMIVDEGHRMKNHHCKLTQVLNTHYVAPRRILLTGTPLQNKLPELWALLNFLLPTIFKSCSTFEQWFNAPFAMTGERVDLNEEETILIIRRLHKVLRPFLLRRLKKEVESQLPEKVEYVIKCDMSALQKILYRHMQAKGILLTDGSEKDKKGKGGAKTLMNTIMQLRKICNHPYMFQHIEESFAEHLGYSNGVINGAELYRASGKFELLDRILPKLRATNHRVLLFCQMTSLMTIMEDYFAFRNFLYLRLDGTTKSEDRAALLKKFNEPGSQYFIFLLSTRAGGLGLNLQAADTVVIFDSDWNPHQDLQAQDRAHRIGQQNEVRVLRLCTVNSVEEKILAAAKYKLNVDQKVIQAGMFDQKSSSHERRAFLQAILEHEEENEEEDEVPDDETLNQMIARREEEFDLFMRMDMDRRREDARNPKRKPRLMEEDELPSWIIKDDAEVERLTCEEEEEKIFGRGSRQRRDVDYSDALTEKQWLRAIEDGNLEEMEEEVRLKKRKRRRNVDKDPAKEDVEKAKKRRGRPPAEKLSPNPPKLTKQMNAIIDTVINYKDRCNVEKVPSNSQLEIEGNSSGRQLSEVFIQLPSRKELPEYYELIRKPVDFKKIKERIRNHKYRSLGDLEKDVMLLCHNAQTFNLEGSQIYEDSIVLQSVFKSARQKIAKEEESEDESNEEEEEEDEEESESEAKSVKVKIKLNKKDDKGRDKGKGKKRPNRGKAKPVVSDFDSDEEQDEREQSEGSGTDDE

Row | Compound | IC50 ([1]; read-out: BRG1 IC50 (μM)*) | Emax [1] | BRM Max % Inhibition [2] | IC50 ([2]; read-out: BRM IC50 (μM)*) | IC50 ([1]; BRG1 IC50 (μM)*) | IC50 ([2]; BRM IC50 (μM)*) | IC50 ([1]; 30 nM BRG-1, 400 μM ATP, read-out: BRG1 IC50 (μM)*) | Emax ([1]; 30 nM BRG-1, 400 μM ATP) | BRM Max % Inhibition ([2]; 30 nM BRM, 400 μM ATP) | IC50 ([2]; 30 nM BRM, 400 μM ATP, read-out: BRM IC50 (μM)*) | BRG1 Max % Inhibition [1]
1 | C[C@@H]1CN(c2cccc(-c3csc(NC(=O)CNC(=O)c4ccc5c(c4)C(F)(C(F)F)CCO5)n3)n2)C[C@H](C)O1 (stereo in doubt) [Compound 273, (S)-4-(difluoromethyl)-N-(2-((4-(6-((cis)-2,6-dimethylmorpholino)pyridin-2-yl)thiazol-2-yl)amino)-2-oxoethyl)-4-fluorochromane-6-carboxamide] | 0.1 to 1 µM | > 95% | >95% | < 0.1 µM |  |  |  |  |  |  | 
2 | CN1CCCc2ccc(C(=O)NCC(=O)Nc3nc(-c4cccc(-c5ccncc5)c4)cs3)cc2S1(=O)=O [Compound 131, 2-methyl-1,1-dioxo-N-[2-oxo-2-[[4-[3-(4-pyridyl)phenyl]thiazol-2-yl]amino]ethyl]-4,5-dihydro-3H-1,2-benzothiazepine-8-carboxamide] | 0.1 to 1 µM | > 70% | >95% | < 0.1 µM |  |  |  |  |  |  | 
3 | CC(C)S(=O)(=O)c1cccc(C(=O)NCC(=O)Nc2nc(-c3cccc(-c4ccnc(N)c4)c3)cs2)c1 [Compound 22, N-(2-((4-(3-(2-aminopyridin-4-yl)phenyl)thiazol-2-yl)amino)-2-oxoethyl)-3-(isopropylsulfonyl)benzamide] |  |  | >95% |  | 0.1 to 1 µM | < 0.1 µM |  |  |  |  | 
4 | C[C@@]1(C#N)COCc2ccc(C(=O)NCC(=O)Nc3nc(-c4cccc(N5CC6(CCO6)C5)c4)cs3)cc21 [Compound 348, (R)-N-(2-((4-(3-(1-oxa-6-azaspiro[3.3]heptan-6-yl)phenyl)thiazol-2-yl)amino)-2-oxoethyl)-4-cyano-4-methylisochromane-6-carboxamide] | 0.1 to 1 µM | > 95% | >95% | < 0.1 µM |  |  |  |  |  |  | 
5 | C[C@H](NC(=O)c1ccc2c(c1)C(C)(CO)CC2)C(=O)Nc1nc(-c2cccc(N3CCC3)c2)cs1 (stereo in doubt) [Compound 414, (S)-N-((S)-1-((4-(3-(azetidin-1-yl)phenyl)thiazol-2-yl)amino)-1-oxopropan-2-yl)-3-(hydroxymethyl)-3-methyl-2,3-dihydro-1H-indene-5-carboxamide] |  |  |  |  |  |  | 0.1 to 1 µM | > 95% | >95% | 0.1 to 1 µM | 
6 | Cc1cc(-c2cccc(-c3csc(NC(=O)CNC(=O)c4ccc5c(c4)[C@@](C)(CO)CC5)n3)c2)nc(C)n1 [Compound 227, (3S)-N-[2-[[4-[3-(2,6-dimethylpyrimidin-4-yl)phenyl]thiazol-2-yl]amino]-2-oxo-ethyl]-3-(hydroxymethyl)-3-methylindane-5-carboxamide] | < 0.1 µM | > 95% | >95% | < 0.1 µM |  |  |  |  |  |  | 
7 | C[C@@H]1CN(c2cccc(-c3csc(NC(=O)CNC(=O)c4ccc5c(c4)[C@](F)(C(F)F)CCO5)n3)c2)C[C@H](C)O1 [Compound 274, (S)-4-(difluoromethyl)-N-(2-((4-(3-((cis)-2,6-dimethylmorpholino)phenyl)thiazol-2-yl)amino)-2-oxoethyl)-4-fluorochromane-6-carboxamide] | < 0.1 µM | > 95% | >95% | < 0.1 µM |  |  |  |  |  |  | 
8 | CC(C)S(=O)(=O)c1cccc(C(=O)NCC(=O)Nc2nc(-c3cccc(-c4cccnc4)c3)cs2)c1 [Compound 39, 3-isopropylsulfonyl-N-[2-oxo-2-[[4-[3-(3-pyridyl)phenyl]thiazol-2-yl]amino]ethyl]benzamide] | 1 to 5 µM | > 90% | >95% | 0.1 to 1 µM |  |  |  |  |  |  | 
9 | C[C@@]1(C#N)COCc2ccc(C(=O)NCC(=O)Nc3nc(-c4cccc([C@@]56CCOC[C@@H]5C6)n4)cs3)cc21 [Compound 292, (R)-N-(2-((4-(6-((1R,6S)-3-oxabicyclo[4.1.0]heptan-6-yl)pyridin-2-yl)thiazol-2-yl)amino)-2-oxoethyl)-4-cyano-4-methylisochromane-6-carboxamide] | 0.1 to 1 µM | > 95% | >95% | < 0.1 µM |  |  |  |  |  |  | 
10 | C[C@@H]1CN(c2cccc(-c3csc(NC(=O)CNC(=O)c4ccc5c(c4)[C@](C)(F)COC5)n3)n2)C[C@H](C)O1 [Compound 409, (S)-N-(2-((4-(6-((cis)-2,6-dimethylmorpholino)pyridin-2-yl)thiazol-2-yl)amino)-2-oxoethyl)-4-fluoro-4-methylisochromane-6-carboxamide] | < 0.1 µM | > 95% | >95% | < 0.1 µM |  |  |  |  |  |  | 
11 | Cn1ncc2ccc(-c3csc(NC(=O)CNC(=O)c4ccc5c(c4)[C@](C)(CO)CC5)n3)cc21 [Compound 179, (R)-3-(hydroxymethyl)-3-methyl-N-(2-((4-(1-methyl-1H-indazol-6-yl)thiazol-2-yl)amino)-2-oxoethyl)-2,3-dihydro-1H-indene-5-carboxamide] | > 5 µM | > 50% | >80% | 0.1 to 1 µM |  |  |  |  |  |  | 
12 | CC(C)(CN)c1cccc(C(=O)NCC(=O)Nc2nc(-c3cccc(-c4cc(C#N)cc(CO)c4)c3)cs2)c1 [Compound 52, 3-(1-amino-2-methylpropan-2-yl)-N-(2-((4-(3′-cyano-5′-(hydroxymethyl)-[1,1′-biphenyl]-3-yl)thiazol-2-yl)amino)-2-oxoethyl)benzamide] | 1 to 5 µM | > 70% | >80% | 0.1 to 1 µM |  |  |  |  |  |  | 
13 | CCC(C)(O)c1cccc(C(=O)NCC(=O)Nc2nc(-c3cccc(-c4ccncc4)c3)cs2)c1 (single isomer, unassigned) [Compound 80] | 0.1 to 1 µM | > 80% | >90% | 1 to 5 µM |  |  |  |  |  |  | 
14 | C[C@@H]1CN(c2cccc(-c3csc(NC(=O)CNC(=O)c4ccc(Cl)c(C(C)(C)CO)c4)n3)n2)C[C@H](C)O1 [Compound 241, 4-chloro-N-[2-[[4-[6-[(cis)-2,6-dimethylmorpholin-4-yl]-2-pyridyl]thiazol-2-yl]amino]-2-oxo-ethyl]-3-(2-hydroxy-1,1-dimethyl-ethyl)benzamide] | 0.1 to 1 µM | > 90% | >95% | < 0.1 µM |  |  |  |  |  |  | 
15 | CN1CC=Cc2ccc(C(=O)NCC(=O)Nc3nc(-c4cccc(-c5ccncc5)c4)cs3)cc2S1(=O)=O [Compound 130, 2-methyl-1,1-dioxo-N-[2-oxo-2-[[4-[3-(4-pyridyl)phenyl]thiazol-2-yl]amino]ethyl]-3H-1,2-benzothiazepine-8-carboxamide] | > 5 µM | < 30% | >60% | 0.1 to 1 µM |  |  |  |  |  |  | 
16 | Cc1nccc(-c2cccc(-c3csc(NC(=O)CNC(=O)c4cccc(S(=O)(=O)C(C)C)c4)n3)n2)n1 [Compound 121] | 1 to 5 µM | > 80% | >95% | 0.1 to 1 µM |  |  |  |  |  |  | 
17 | C[C@@]1(C#N)COCc2ccc(C(=O)NCC(=O)Nc3nc(-c4cccc(C5CCO5)c4)cs3)cc21 (stereo partly shown) [Compound 365] | 0.1 to 1 µM |  | >95% | < 0.1 µM |  |  |  |  |  |  | >95%
18 | C[C@@H]1CN(c2cccc(-c3csc(NC(=O)CNC(=O)c4cccc([C@]5(F)C[C@H](O)C5)c4)n3)c2)C[C@H](C)O1 [Compound 150, N-(2-((4-(3-((cis)-2,6-dimethylmorpholino)phenyl)thiazol-2-yl)amino)-2-oxoethyl)-3-((1r,3r)-1-fluoro-3-hydroxycyclobutyl)benzamide] | 0.1 to 1 µM | > 90% | >95% | < 0.1 µM |  |  |  |  |  |  | 
19 | Cc1ccc(C(=O)NCC(=O)Nc2nc(-c3cccc(-c4ccn(C)n4)c3)cs2)cc1C(C)(C)CN [Compound 70, 3-(1-amino-2-methylpropan-2-yl)-4-methyl-N-(2-((4-(3-(1-methyl-1H-pyrazol-3-yl)phenyl)thiazol-2-yl)amino)-2-oxoethyl)benzamide] | > 5 µM | > 50% | >95% | 0.1 to 1 µM |  |  |  |  |  |  | 
20 | C[C@@]1(C#N)COCc2ccc(C(=O)NCC(=O)Nc3nc(-c4cc(F)c5c(c4)OCO5)cs3)cc21 [Compound 339, (R)-4-cyano-N-(2-((4-(7-fluorobenzo[d][1,3]dioxol-5-yl)thiazol-2-yl)amino)-2-oxoethyl)-4-methylisochromane-6-carboxamide] | < 0.1 µM | > 95% | >95% | < 0.1 µM |  |  |  |  |  |  | 
21 | C[C@@H]1CN(c2cccc(-c3csc(NC(=O)CNC(=O)c4ccc5c(c4)[C@](C)(C#N)CCO5)n3)c2)C[C@H](C)O1 [Compound 172, (4R)-4-cyano-N-[2-[[4-[3-[(cis)-2,6-dimethylmorpholin-4-yl]phenyl]thiazol-2-yl]amino]-2-oxo-ethyl]-4-methyl-chromane-6-carboxamide] | < 0.1 µM | > 95% | >95% | < 0.1 µM |  |  |  |  |  |  | 
22 | Cn1ccc(-c2cccc(-c3csc(NC(=O)CNC(=O)c4cccc(C(C)(C)CN)c4)n3)c2)n1 [Compound 69, 3-(1-amino-2-methylpropan-2-yl)-N-(2-((4-(3-(1-methyl-1H-pyrazol-3-yl)phenyl)thiazol-2-yl)amino)-2-oxoethyl)benzamide] | > 5 µM | > 30% | >70% | 0.1 to 1 µM |  |  |  |  |  |  | 
23 | O=C(CNC(=O)c1cccc(C2(C(F)F)COC2)c1)Nc1nc(-c2cccc(C(F)F)c2)cs1 [Compound 344, 3-(3-(difluoromethyl)oxetan-3-yl)-N-(2-((4-(3-(difluoromethyl)phenyl)thiazol-2-yl)amino)-2-oxoethyl)benzamide] | 0.1 to 1 µM | > 95% | >95% | 0.1 to 1 µM |  |  |  |  |  |  | 

From patent US12685735B2 (Foghorn Therapeutics Inc., priority 2020, dated 2026)
